Reference: US20250136555A1 (HARBIN MEDISAN PHARMACEUTICAL CO., LTD., priority 2022, published 2025)
Read-outs that look alike come from different tables or passages of the source.

How the values were obtained:
PPARα = target: T1, PPARα (Homo sapiens, UniProt Q07869); assay: GAL4 hybrid reporter gene method, PPARα agonistic activity; type: cell-based; conditions: Cos-7 cells, Gal4-PPARα (LBD); GW7647 10 nM = 100%; 16 h
T1 construct: expressed in transfected cells; host or cells: COS-7
T1 sequence (Q07869 239-466 limits assumed): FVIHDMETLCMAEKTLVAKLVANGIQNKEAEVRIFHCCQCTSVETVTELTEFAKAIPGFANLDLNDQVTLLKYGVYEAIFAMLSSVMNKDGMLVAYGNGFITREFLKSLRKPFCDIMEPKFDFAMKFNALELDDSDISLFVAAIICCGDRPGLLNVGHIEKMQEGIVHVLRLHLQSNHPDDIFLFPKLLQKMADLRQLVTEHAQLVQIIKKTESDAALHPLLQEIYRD

PPARδ = target: T2, PPARδ (Homo sapiens, UniProt Q03181); assay: GAL4 hybrid reporter gene method, PPARδ agonistic activity; type: cell-based
T2 construct: expressed in transfected cells; host or cells: COS-7
T2 sequence (Q03181 211-439 limits assumed): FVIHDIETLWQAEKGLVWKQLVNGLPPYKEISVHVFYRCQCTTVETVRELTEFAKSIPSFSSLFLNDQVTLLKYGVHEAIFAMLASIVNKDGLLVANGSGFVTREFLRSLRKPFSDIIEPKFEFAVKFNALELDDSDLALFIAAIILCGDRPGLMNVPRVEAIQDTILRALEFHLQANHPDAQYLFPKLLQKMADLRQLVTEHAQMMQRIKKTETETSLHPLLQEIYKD
Method: (§1) Cos-7 cells (African green monkey kidney fibroblasts, commonly used tool cells) were cultured in a 10-cm cell culture dish with a DMEM complete medium containing 10% fetal bovine serum. When growing at a density of about 70%, the cells were ready for transfection. […] The working solution described above was then combined with 8 mL of the DMEM complete medium, and the mixture was added to the cell culture dish for cell transfection. After 4 h of transfection, the cells were digested, resuspended, and seeded into a 96-well plate at 25,000 cells/well. […] 10 μL of a reporter gene detection solution (purchased from Shanghai Beyotime Biological Tech. Co., Ltd.) was added. After the resulting solution was mixed and reacted, biological fluorescence was detected by using a multifunctional microplate reader, and corresponding half maximal effective concentration (EC50) values were calculated according to the detection values. […] Transfection working solutions for different nuclear receptors were prepared and added into COS-7 cells. The preparation method for the transfection working solution was as follows: the constructed pBIND-Gal4-PPARα (LBD) (or pBIND-Gal4-PPARδ (LBD) plasmid or pBIND-Gal4-PPARγ (LBD) plasmid or pBIND-Gal4-RARα (LBD) plasmid or pBIND-Gal4-RARγ (LBD) plasmid or pBIND-Gal4-RARβ (LBD) plasmid or pBIND-Gal4-RORα (LBD) plasmid or pBIND-Gal4-RORγ (LBD) plasmid or pBIND-Gal4-RORβ (LBD) plasmid or pBIND-Gal4-FXR (LBD) plasmid or pBIND-Gal4-RXRα.

PPARγ = target: T3, PPARγ (Homo sapiens, UniProt P37231); assay: GAL4 hybrid reporter gene method, PPARγ agonistic activity; type: cell-based
T3 construct: expressed in transfected cells; host or cells: COS-7
T3 sequence (P37231 238-503 limits assumed): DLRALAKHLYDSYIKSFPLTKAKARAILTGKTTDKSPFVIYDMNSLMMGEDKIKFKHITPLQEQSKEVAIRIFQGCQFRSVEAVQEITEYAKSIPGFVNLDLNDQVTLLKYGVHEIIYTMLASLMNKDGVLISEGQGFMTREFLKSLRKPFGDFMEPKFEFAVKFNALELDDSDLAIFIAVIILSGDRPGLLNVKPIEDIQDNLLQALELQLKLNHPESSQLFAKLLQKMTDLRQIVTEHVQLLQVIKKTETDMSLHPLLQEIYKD
Method: as §1

[1] = Metabolic stability in human liver microsomes; type: in vitro ADME; conditions: human liver microsomes 0.75 mg/mL, NADPH
Method: A solution of the compound in acetonitrile at a concentration of 500 μM was prepared and diluted in 0.1 M potassium phosphate solution to obtain a 1.5 μM drug working solution. The drug working solution was co-incubated with a human liver microsome working solution at a final concentration of 0.75 mg/mL and a NADPH solution (at a final concentration of 550 μM), and the incubation was terminated by adding an acetonitrile solution at 0 min, 15 min, 30 min, 45 min, and 60 min, respectively. The remaining amount of the compound remained in the system at each time point was detected by using LC/MS, the absolute value k of the slope was measured by plotting the natural logarithm of the percentage of the remaining amount of the compound over time, and the calculation was performed according to the formula: T1/2 (half-life)=ln2/k=0.693/k.

[2] = NCT02704403; cited from earlier work
[3] = Cos-7 cells, Gal4-PPARγ (LBD), Rosiglitazone 1 μM = 100%, 16 h
[4] = Cos-7 cells, Gal4-PPARδ (LBD), GW501516 10 nM = 100%, 16 h

| SMILES | EC50 (PPARα) | EC50 (PPARδ) | EC50 (PPARγ) | EC50 (PPARγ; [3]) | CLint scaled [1] | half-life [1] | EC50 (PPARδ; [4]) | PPARα EC50 (nM) (PPARα) | PPARδ EC50 (nM) (PPARδ; [4]) | interim analysis result of phase III clinical trial against NASH [2] |
| --- | --- | --- | --- | --- | --- | --- | --- | --- | --- | --- |
| CC(C)(Oc1ccc(CN2C(=O)CN(c3ccc(C(F)(F)F)cc3)C2=O)cc1Cl)C(=O)O [Compound 51, 2-(4-((2,5-Dioxo-3-(4-(trifluoromethyl)phenyl)imidazolin-1-yl)methyl)-2-chlorophenoxy)-2-methylpropionic Acid] | 89.9 nM | 40.1 nM | > 5000 nM |  |  |  |  |  |  |  |
| CC(C)(Oc1ccc(CN2C(=O)CN(c3ccc(C(F)(F)F)cc3)C2=O)cc1OC(F)(F)F)C(=O)O [Compound 55, 2-(4-((2,5-Dioxo-3-(4-(trifluoromethyl)phenyl)imidazolin-1-yl)methyl)-2-(trifluoromethoxy)phenoxy)-2-methylpropionic Acid] | 82.1 nM | 24 nM | 2960 nM |  |  |  |  |  |  |  |
| Cc1cc(CN2C(=O)CN(c3ccc(-c4ccccc4)cc3)C2=O)cc(C)c1OC(C)(C)C(=O)O [Compound 41] | 0.9 nM |  |  | 630 nM |  |  | 6.2 nM | low nanomolar levels | low nanomolar levels |  |
| CC(C)(Oc1ccc(CN2C(=O)CN(c3ccc(C(F)(F)F)cc3)C2=O)cc1C(F)(F)F)C(=O)O [Compound 11, 2-(4-((2,5-Dioxo-3-(4-(trifluoromethyl)phenyl)imidazolidin-1-yl)methyl)-2-(trifluoromethyl)phenoxy)-2-methylpropionic Acid] | 77.1 nM | 33.1 nM | 2480 nM |  |  |  |  |  |  |  |
| Cc1cc(CN2C(=O)CN(c3ccc(C(F)(F)F)cc3)C2=O)ccc1OCC(=O)O [Compound 9, 2-(4-((2,5-Dioxo-3-(4-(trifluoromethyl)phenyl)imidazolidin-1-yl)methyl)-2-methylphenoxy)acetic Acid] | 994 nM | 976 nM | > 5000 nM |  |  |  |  |  |  |  |
| Cc1cc(CN2C(=O)CN(c3cccc(C(F)(F)F)c3)C2=O)cc(C)c1OC(C)(C)C(=O)O [Compound 45, 2-(4-((2,5-Dioxo-3-(3-(trifluoromethyl)phenyl)imidazolin-1-yl)methyl)-2,6-dimethylphenoxy)-2-methylpropionic Acid] | 3.8 nM |  |  | 996 nM |  |  | 5.9 nM | low nanomolar levels | low nanomolar levels |  |
| Cc1ccc(N2CC(=O)N(Cc3cc(C)c(OC(C)(C)C(=O)O)c(C)c3)C2=O)cc1 [Compound 23, 2-(4-((2,5-Dioxo-3-(4-methylphenyl)imidazolin-1-yl)methyl)-2,6-dimethylphenoxy)-2-methylpropionic Acid] | 26.5 nM |  |  | 629 nM |  |  | 25.7 nM |  |  |  |

More lines, main results first:

| EC50 (PPARα) | EC50 (PPARδ) | EC50 (PPARγ) | EC50 (PPARγ; [3]) | CLint scaled [1] | half-life [1] | EC50 (PPARδ; [4]) | PPARα EC50 (nM) (PPARα) | PPARδ EC50 (nM) (PPARδ; [4]) | SMILES | interim analysis result of phase III clinical trial against NASH [2] |
| --- | --- | --- | --- | --- | --- | --- | --- | --- | --- | --- |
| 353 nM | 352 nM | 3400 nM |  |  |  |  |  |  | Cc1cc(CCN2CC(=O)N(c3ccc(C(F)(F)F)cc3)C2=O)cc(C)c1OC(C)(C)C(=O)O [Compound 87, 2-(4-(2-(2,4-Dioxo-3-(4-(trifluoromethyl)phenyl)imidazolin-1-yl)ethyl)-2,6-dimethylphenoxy)-2-methylpropionic Acid] |  |
| 105 nM | 47.5 nM | 652 nM |  |  |  |  |  |  | Cc1cc(CN2C(=O)CN(c3cccc(Cl)c3)C2=O)cc(C)c1OC(C)(C)C(=O)O [Compound 107] |  |
| 820 nM |  |  | 1840 nM | 116 mL/min/kg | 15 min |  |  |  | CSc1ccc(C(=O)/C=C/c2cc(C)c(OC(C)(C)C(=O)O)c(C)c2)cc1 [GFT505, Elafibranor, reference compound] | substantially ineffective |
| 46.7 nM |  |  | 2720 nM |  |  | 19.2 nM |  |  | Cc1cc(CN2C(=O)CN(c3ccc(C(F)(F)F)cc3)C2=O)ccc1OC(C)(C)C(=O)O [Compound 57, 2-(4-((2,5-Dioxo-3-(4-(trifluoromethyl)phenyl)imidazolin-1-yl)methyl)-2-(methyl)phenoxy)-2-methylpropionic Acid] |  |
